From PubChem BioAssay (NCI)
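GI50 marks 50% less growth. Definition used: TGI = concentration required for complete inhibition of growth.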

Legend:
Experiment in all cases: NCI anticancer screen, dose series, 384-well format
[1] = test system: SF-268 CNS
[2] = test system: NCI-H522 lung
[3] = test system: MALME-3M melanoma
[4] = test system: MCF7 breast
[5] = test system: K-562 leukemia
[6] = test system: MDA-MB-231 breast
[7] = test system: SW-620 colon
[8] = test system: HL-60(TB) leukemia
[9] = test system: SF-539 CNS
[10] = test system: OVCAR-5 ovarian
[11] = test system: HOP-92 NSCLC
[12] = test system: MDA-MB-468 breast
[13] = test system: SNB-19 CNS
[14] = test system: IGROV1 ovarian
[15] = test system: RPMI-8226 leukemia
[16] = test system: NCI-H460 NSCLC
[17] = test system: LOX IMVI melanoma
[18] = test system: COLO 205 colon
[19] = test system: OVCAR-3 ovarian
[20] = test system: HCC-2998 colon
[21] = test system: M14 melanoma
[22] = test system: BT-549 breast
[23] = test system: NCI-H322M lung
[24] = test system: EKVX NSCLC
[25] = test system: TK-10 renal
[26] = test system: 786-0 renal
[27] = test system: SK-MEL-5 melanoma
[28] = test system: SR leukemia
[29] = test system: UO-31 renal
[30] = test system: HOP-62 NSCLC
[31] = test system: HT29 colon
[32] = test system: HS 578T breast
[33] = test system: SK-OV-3 ovarian
[34] = test system: SF-295 CNS
[35] = test system: HCT-15 colon
[36] = test system: PC-3 prostate
[37] = test system: A498 renal
[38] = test system: ACHN renal
[39] = test system: A549 NSCLC
[40] = test system: RXF 393 renal
[41] = test system: T-47D breast
[42] = test system: OVCAR-4 ovarian
[43] = test system: UACC-62 melanoma
[44] = test system: MDA-MB-435 melanoma
[45] = test system: UACC-257 melanoma
[46] = test system: DU-145 prostate
[47] = test system: SN12C renal
[48] = test system: SK-MEL-28 melanoma
[49] = test system: U251 glioblastoma
[50] = test system: NCI-H226 lung
[51] = test system: KM12 colon
[52] = test system: CAKI-1 renal
[53] = test system: MOLT-4 leukemia
[54] = test system: SNB-75 CNS
[55] = test system: NCI/ADR-RES ovarian
[56] = test system: NCI-H23 lung
[57] = test system: OVCAR-8 ovarian

In the case of `C[C@@]1(C(=O)Nc2ccc(F)nc2)CCCN1c1nc(Nc2cc(C3CC3)[nH]n2)c2cccn2n1`, the GI50 [1] is reported as 1.44 µM, the TGI [1] is reported as 6.55 µM and the GI50 [2] is reported as 0.864 µM. It also gave a TGI [2] of 7.46 µM, a GI50 [3] of 0.356 µM and a TGI [3] of 16.6 µM. For the same compound, the GI50 [4] was 0.0388 µM, the TGI [4] was 12.4 µM and the GI50 [5] was 3.81 µM. The TGI [5] was 15.4 µM, the GI50 [6] was 1.58 µM and the TGI [6] was 12.5 µM. The GI50 [7] was 0.644 µM, the TGI [7] was 14.4 µM and the GI50 [8] was under 0.01 µM. It also gave a TGI [8] of 0.126 µM, a GI50 [9] of 1.91 µM and a TGI [9] of 11 µM. For the same compound, the GI50 [10] was 1.5 µM, the TGI [10] was 8.62 µM and the GI50 [11] was 0.289 µM. The TGI [11] was 2.68 µM, the GI50 [12] was 0.246 µM and the TGI [12] was 0.561 µM. The GI50 [13] was 8.33 µM, the TGI [13] was 29.3 µM and the GI50 [14] was 1.72 µM. For the same compound, the TGI [14] was 7.19 µM, the GI50 [15] was 0.201 µM and the TGI [15] was 0.491 µM. For the same compound, the GI50 [16] was 0.239 µM, the TGI [16] was 1.17 µM and the GI50 [17] was 1.93 µM. For the same compound, the TGI [17] was 13 µM, the GI50 [18] was under 0.01 µM and the TGI [18] was 0.189 µM. For the same compound, the GI50 [19] was 0.842 µM, the TGI [19] was 9.82 µM and the GI50 [20] was 10.6 µM. The TGI [20] was 22.7 µM, the GI50 [21] was 1.7 µM and the TGI [21] was 16.8 µM. It also gave a GI50 [22] of 1.71 µM, a TGI [22] of 7.62 µM and a GI50 [23] of 3.87 µM. For the same compound, the TGI [23] was 20.1 µM, the GI50 [24] was 0.681 µM and the TGI [24] was 9.59 µM. It also gave a GI50 [25] of 2.49 µM, a TGI [25] of 20.1 µM and a GI50 [26] of 2.12 µM. The TGI [26] was 11.3 µM, the GI50 [27] was 1.78 µM and the TGI [27] was 15.9 µM. The GI50 [28] was 0.18 µM, the TGI [28] was 0.336 µM and the GI50 [29] was 3.75 µM. The TGI [29] was 18.2 µM, the GI50 [30] was 1.87 µM and the TGI [30] was 13.2 µM. The GI50 [31] was under 0.01 µM, the TGI [31] was 10.5 µM and the GI50 [32] was 1.51 µM. For the same compound, the TGI [32] was 3.8 µM, the GI50 [33] was 2.69 µM and the TGI [33] was 14 µM. For the same compound, the GI50 [34] was 0.837 µM, the TGI [34] was 4.19 µM and the GI50 [35] was 0.703 µM. It also gave a TGI [35] of 12.2 µM, a GI50 [36] of 2.67 µM and a TGI [36] of 14.4 µM. It also gave a GI50 [37] of 1.72 µM, a TGI [37] of 17.1 µM and a GI50 [38] of 2.43 µM. For the same compound, the TGI [38] was 16 µM, the GI50 [39] was 0.63 µM and the TGI [39] was 15.4 µM. The GI50 [40] was 2.25 µM, the TGI [40] was 12.7 µM and the GI50 [41] was 0.651 µM. The TGI [41] was 14.3 µM, the GI50 [42] was 0.935 µM and the TGI [42] was 4.21 µM. The GI50 [43] was 1.75 µM, the TGI [43] was 15.7 µM and the GI50 [44] was 14.4 µM. The TGI [44] was 27.6 µM, the GI50 [45] was 0.694 µM and the TGI [45] was 16.4 µM. The GI50 [46] was 0.995 µM, the TGI [46] was 12.5 µM and the GI50 [47] was 2.07 µM. The TGI [47] was 6.96 µM, the GI50 [48] was 10.6 µM and the TGI [48] was 22.7 µM. It also gave a GI50 [49] of 5.48 µM, a TGI [49] of 19.4 µM and a GI50 [50] of 0.557 µM. For the same compound, the TGI [50] was 7.05 µM, the GI50 [51] was 0.03 µM and the TGI [51] was 0.204 µM. The GI50 [52] was 1.3 µM, the TGI [52] was 5.28 µM and the GI50 [53] was 0.224 µM. For the same compound, the TGI [53] was 0.439 µM, the GI50 [54] was 1.14 µM and the TGI [54] was 3.57 µM. For the same compound, the GI50 [55] was 2.36 µM, the TGI [55] was 10.7 µM and the GI50 [56] was 0.223 µM. The TGI [56] was 3.87 µM, the GI50 [57] was 4.09 µM and the TGI [57] was 18.7 µM.
